The values that follow come from ChEMBL document CHEMBL1201862, “PubChem BioAssay data set” (2004).

In assay [1] the target is 72 kDa type IV collagenase (Homo sapiens, UniProt P08253). Description: Dose Response validation of uHTS RPN11 inhibitor hits using a MMP-2 Fluorescence assay. The class given is functional.
The target in assay [2] is 26S proteasome non-ATPase regulatory subunit 14 (Homo sapiens, UniProt O00487). Description: inhibition of proteasome subunit RPN11 – biochemical, fluorescence polarization, uHTS hits, confirmation (AID 602368). The class given is functional. (Polarisation of emitted light reports the rotation of a fluorescent probe.)
A further assay has as its target Prothrombin (Bos taurus, UniProt P00735). Description: thrombin protease inhibitors – biochemical, fluorescence polarization, uHTS hits, dose response (AID 602369). The class given is functional.
Assay [3] has as its target Multidrug resistance protein CDR1 (Candida albicans, UniProt P43071). Description: inhibition of Nile Red efflux via Candida CDR1 – S. cerevisiae AD1-8u, singleplex, Cherry Pick1 hits, dose response (AID 588606). Type of assay: functional.
The nature of assay [4]: cAMP pathway inhibition in counterscreen cell line – TR-FRET cAMP detection, counter-screen for MC4R biased antagonist project, dose response (AID 602305).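 Further: U2OS cells stimulated with forskolin near its EC80 as the cAMP inducer; potency is for inhibition of forskolin-stimulated cAMP signaling.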 The class given is functional, cell-based. In general terms: Counterscreens check selectivity or assay interference.
Another assay deals with Melanocortin receptor 4 (Homo sapiens, UniProt P32245). Put plainly: inhibitors of MC4R cAMP signaling – cell-based, TR-FRET, biased antagonists, dose response (AID 602298).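 Further: antagonist potency against agonist-stimulated cAMP production.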 The class given is functional.
Another assay addresses Protein Wnt-3a (Mus musculus, UniProt P27467). Put plainly: antagonism of Wnt3a pathway luciferase reporter – Wnt-LIGHT cells, luminescence, selectivity assay for Gli-SUFU antagonist project, dose response (AID 651570).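 Further: Wnt-LIGHT reporter cells stimulated with conditioned medium from Wnt3a-producing cells.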 Type of assay: functional. Particulars: read-out: IC50_Mean.
Assay [5] deals with Cyclin-dependent kinase 1 (Homo sapiens, UniProt P06493). The class given is functional.
Assay [6] deals with Insulin-like growth factor 1 receptor (Homo sapiens, UniProt P08069). Put plainly: Navigating the Kinome. Panel member name: IGF1R. The class given is functional.
The target in assay [7] is Vascular endothelial growth factor receptor 3 (Homo sapiens, UniProt P35916). The class given is functional.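 Further: value from a kinome-wide profiling panel, with FLT4 as the panel member.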
The target in assay [8] is T1, ATP-dependent translocase ABCB1 (Homo sapiens, UniProt P08183). Description: P-gp JC-1 efflux blockade concentration-response – Jurkat-DNR cells, flow cytometry, set 2, dose response (AID 504569).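 Further: potency of pump inhibitors that raise cellular JC-1 green fluorescence up to the nicardipine level.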 The class given is functional. Particulars: read-out: EC50_MICROM_. A general note: A flow cytometer gives signals particle by particle.
The target in assay [9] is T1, ATP-dependent translocase ABCB1. Put plainly: inhibition of BCRP-mediated JC-1 efflux – Ig-MXP3 cells, flow cytometry, set 2, dose response (AID 504566).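 Further: flow cytometry median green fluorescence of retained JC-1 dye; potency of efflux pump inhibition measured as rising substrate retention.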 Type of assay: functional. Particulars: read-out: EC50_MICROM_.
The target in assay [10] is T2, Mitochondrial peptide methionine sulfoxide reductase (Bos taurus, UniProt P54149).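 Further: absorbance read-out, biochemical high-throughput dose-response screen for MsrA inhibitors, confirmatory; recombinant bovine MsrA coupled to E. coli TrxB with NADPH and selenocystamine; potency is for inhibitors of MsrA activity on DMSO substrate.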
T2 sequence (P54149 whole entry): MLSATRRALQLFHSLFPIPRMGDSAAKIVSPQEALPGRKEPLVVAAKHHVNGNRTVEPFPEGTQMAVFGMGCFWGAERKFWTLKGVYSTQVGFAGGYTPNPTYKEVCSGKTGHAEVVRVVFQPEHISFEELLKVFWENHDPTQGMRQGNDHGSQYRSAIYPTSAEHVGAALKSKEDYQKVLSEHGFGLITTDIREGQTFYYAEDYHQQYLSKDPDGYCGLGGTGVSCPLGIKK
The class given is functional.

Activity calls are given as the source filed them.

T1 sequence (P08183 whole entry): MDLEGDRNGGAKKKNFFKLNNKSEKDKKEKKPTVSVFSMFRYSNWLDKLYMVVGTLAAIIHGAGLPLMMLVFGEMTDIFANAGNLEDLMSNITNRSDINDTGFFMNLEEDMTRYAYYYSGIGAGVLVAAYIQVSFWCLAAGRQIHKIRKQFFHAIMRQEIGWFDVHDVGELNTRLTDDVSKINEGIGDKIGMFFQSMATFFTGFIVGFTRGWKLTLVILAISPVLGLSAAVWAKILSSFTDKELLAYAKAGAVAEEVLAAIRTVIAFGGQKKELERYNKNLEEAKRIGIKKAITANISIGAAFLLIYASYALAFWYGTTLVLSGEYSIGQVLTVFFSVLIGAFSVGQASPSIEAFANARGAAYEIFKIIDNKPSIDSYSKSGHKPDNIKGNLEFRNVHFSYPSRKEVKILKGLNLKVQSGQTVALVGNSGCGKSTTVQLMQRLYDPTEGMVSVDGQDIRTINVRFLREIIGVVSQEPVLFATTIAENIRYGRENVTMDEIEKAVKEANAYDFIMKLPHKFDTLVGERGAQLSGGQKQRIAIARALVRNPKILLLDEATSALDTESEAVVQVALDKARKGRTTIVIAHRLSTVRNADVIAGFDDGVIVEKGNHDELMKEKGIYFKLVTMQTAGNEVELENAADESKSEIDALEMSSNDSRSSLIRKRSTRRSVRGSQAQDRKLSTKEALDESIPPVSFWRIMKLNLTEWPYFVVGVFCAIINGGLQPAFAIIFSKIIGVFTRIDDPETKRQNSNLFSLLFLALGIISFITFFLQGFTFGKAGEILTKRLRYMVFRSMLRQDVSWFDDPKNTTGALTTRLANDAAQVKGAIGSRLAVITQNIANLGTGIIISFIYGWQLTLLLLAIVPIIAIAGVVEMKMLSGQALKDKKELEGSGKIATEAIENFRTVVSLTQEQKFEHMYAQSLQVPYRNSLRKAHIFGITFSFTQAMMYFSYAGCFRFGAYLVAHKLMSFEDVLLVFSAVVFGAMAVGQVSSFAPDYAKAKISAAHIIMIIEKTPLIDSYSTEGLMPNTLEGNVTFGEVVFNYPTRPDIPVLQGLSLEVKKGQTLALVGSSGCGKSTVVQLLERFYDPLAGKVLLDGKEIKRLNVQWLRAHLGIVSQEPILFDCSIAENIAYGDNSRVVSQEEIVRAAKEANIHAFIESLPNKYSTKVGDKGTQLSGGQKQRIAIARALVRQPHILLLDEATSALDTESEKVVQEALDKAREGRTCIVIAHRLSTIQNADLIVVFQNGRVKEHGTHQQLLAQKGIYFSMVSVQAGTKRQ
Chain of 26S proteasome non-ATPase regulatory subunit 14 (O00487 whole entry): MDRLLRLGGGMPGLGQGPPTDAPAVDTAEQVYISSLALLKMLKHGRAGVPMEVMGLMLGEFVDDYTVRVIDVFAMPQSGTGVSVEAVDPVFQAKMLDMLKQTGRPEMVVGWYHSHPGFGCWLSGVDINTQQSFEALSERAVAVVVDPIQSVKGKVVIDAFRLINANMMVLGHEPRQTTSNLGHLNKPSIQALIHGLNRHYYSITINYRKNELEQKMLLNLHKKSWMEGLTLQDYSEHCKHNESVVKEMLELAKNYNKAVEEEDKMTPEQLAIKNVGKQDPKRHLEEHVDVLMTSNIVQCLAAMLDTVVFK
Chain of 72 kDa type IV collagenase (P08253 whole entry): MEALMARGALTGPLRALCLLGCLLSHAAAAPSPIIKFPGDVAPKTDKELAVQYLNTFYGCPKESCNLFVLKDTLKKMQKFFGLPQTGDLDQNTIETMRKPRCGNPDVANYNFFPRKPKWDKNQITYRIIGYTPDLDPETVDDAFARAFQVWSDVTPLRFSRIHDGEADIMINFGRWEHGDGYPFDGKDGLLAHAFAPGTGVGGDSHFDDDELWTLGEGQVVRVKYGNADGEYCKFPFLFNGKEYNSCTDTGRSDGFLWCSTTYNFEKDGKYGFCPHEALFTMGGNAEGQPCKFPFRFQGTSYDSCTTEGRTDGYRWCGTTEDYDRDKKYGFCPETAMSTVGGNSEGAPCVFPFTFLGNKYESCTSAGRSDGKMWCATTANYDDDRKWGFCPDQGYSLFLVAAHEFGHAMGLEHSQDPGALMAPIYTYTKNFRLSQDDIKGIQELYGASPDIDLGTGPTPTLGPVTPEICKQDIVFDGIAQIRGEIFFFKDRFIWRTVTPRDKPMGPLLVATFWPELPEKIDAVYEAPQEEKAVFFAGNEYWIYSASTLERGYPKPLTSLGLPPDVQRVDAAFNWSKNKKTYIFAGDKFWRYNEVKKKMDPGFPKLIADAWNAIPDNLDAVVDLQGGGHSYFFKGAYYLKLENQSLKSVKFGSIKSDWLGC
Chain of Cyclin-dependent kinase 1 (P06493 whole entry): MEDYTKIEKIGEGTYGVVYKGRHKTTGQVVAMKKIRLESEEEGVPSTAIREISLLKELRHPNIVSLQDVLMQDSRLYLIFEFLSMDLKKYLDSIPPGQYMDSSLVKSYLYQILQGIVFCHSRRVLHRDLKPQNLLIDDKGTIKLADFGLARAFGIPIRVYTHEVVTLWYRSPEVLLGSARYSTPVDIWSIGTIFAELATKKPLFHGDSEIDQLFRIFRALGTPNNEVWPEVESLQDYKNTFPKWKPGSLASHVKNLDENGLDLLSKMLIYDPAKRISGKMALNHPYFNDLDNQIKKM
Chain of Melanocortin receptor 4 (P32245 whole entry): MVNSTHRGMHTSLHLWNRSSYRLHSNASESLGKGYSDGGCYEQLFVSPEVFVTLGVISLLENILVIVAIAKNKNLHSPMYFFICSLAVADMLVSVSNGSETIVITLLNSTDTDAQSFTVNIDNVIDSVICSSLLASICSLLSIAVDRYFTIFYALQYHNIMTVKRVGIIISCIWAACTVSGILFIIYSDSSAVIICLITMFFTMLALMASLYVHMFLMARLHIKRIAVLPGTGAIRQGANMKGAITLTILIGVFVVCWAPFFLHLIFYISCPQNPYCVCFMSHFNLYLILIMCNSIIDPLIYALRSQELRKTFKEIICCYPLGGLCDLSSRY
Chain of Insulin-like growth factor 1 receptor (P08069 31-736 limits assumed): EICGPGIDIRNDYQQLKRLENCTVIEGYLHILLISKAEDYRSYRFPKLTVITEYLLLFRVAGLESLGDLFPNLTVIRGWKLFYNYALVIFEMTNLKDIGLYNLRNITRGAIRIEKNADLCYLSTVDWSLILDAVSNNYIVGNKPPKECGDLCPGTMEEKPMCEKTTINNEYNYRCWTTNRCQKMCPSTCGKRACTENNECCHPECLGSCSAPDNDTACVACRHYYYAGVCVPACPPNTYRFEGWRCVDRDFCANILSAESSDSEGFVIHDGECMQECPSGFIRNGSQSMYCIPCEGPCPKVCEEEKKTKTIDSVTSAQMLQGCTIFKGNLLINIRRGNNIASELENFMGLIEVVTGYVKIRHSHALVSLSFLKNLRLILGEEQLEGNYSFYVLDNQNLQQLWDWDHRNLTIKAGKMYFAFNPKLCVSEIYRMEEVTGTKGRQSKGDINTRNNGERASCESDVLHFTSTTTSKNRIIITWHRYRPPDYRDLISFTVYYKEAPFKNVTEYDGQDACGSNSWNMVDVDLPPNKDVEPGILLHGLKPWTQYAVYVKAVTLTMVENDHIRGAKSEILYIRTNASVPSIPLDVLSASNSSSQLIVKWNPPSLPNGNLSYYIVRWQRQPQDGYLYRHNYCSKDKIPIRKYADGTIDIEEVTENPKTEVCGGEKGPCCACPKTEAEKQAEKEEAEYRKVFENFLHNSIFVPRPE
Chain of Insulin-like growth factor 1 receptor (P08069 741-1367 limits assumed): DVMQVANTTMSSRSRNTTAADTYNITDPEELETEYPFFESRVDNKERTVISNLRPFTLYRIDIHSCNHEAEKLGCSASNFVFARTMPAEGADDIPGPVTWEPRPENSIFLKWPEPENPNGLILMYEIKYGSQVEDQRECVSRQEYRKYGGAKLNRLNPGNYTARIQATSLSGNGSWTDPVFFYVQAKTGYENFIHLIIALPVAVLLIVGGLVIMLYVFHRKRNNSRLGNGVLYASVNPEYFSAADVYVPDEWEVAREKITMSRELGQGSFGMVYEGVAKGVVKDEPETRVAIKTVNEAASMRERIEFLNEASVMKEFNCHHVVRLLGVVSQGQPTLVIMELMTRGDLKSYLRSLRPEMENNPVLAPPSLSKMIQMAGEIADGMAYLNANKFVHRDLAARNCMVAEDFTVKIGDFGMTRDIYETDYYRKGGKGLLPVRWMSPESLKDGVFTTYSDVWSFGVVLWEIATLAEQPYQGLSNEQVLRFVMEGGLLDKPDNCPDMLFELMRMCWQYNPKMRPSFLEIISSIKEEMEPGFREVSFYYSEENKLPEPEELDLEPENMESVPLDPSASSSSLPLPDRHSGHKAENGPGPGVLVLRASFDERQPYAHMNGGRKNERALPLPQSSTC
Chain of Protein Wnt-3a (P27467 whole entry): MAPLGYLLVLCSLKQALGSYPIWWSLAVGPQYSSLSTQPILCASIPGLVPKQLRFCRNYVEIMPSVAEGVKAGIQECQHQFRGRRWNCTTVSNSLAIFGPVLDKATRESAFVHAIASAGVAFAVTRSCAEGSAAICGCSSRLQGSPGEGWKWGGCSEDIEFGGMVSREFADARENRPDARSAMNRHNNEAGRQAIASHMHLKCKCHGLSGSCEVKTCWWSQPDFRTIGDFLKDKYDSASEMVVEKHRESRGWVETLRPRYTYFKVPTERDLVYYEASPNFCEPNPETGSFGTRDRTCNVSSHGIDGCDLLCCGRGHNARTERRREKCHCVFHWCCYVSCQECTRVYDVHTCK

With `CSc1nsc(/C=C/Nc2ccc(C(=O)O)cc2)c1C#N`, the IC50 was 45 µM (active) in [1], 24.8 µM (active) in [2] and 27.6 µM (active) on Prothrombin. As to `O=C(Nc1ccnc(-c2cccnc2)n1)c1cccc(Cl)c1Cl`, the EC50 in assay [3] was 117 nM (active).

Take `CC(C)(C)C(=O)COC(=O)CNC(=O)c1ccc(Oc2ccccc2)cc1`: the IC50 (in assay [4]; at Melanocortin receptor 4) was > 64.6 µM (inactive) throughout.

For the compound `C=CCNC(=S)/N=c1/ccccn1Cc1ccccc1`, the IC50 on Protein Wnt-3a is 40.8 µM (inactive). As to `Cc1cc(C)c(C=C2C(=O)Nc3ccccc32)[nH]1`, the Ki is > 7.94 µM (inactive) in assay [5], > 1 µM (inactive) in [6] and 316 nM (active) in assay [7]. Regarding `O=C(c1ccco1)N1CCN(c2cc(-c3ccccc3)nc3cc(-c4cccc(F)c4)nn23)CC1`, the results for the EC50 in assay [8] and in [9] were 3.4 µM (active) and 1.05 µM (active), respectively.

In the case of `C/C(CCC(C)C)=N\Nc1ccc(S(N)(=O)=O)cc1[N+](=O)[O-]`, in [10], the IC50 was 155 µM (inactive).

In general, Ki refers to the dissociation constant of the complex between target and ligand, obtained from inhibition or displacement.
